Reference: patent US20180303863A1, “Pharmaceutical Composition for Treating STK11-Mutation Cancer Using Cardiac Glycosides” (INDUSTRY-ACADEMIC COOPERATION FOUNDATION SOOKMYUNG WOMEN'S …, priority 2014, published 2018)

Key:
[1] = tested on: STK11 mutant cell lines (NCI60 panel); assay: CLEA enrichment analysis of GI50 profiles on the NCI60 panel by STK11 genotype; assay type: cell-based; conditions: MOLT-4, A549, NCI-H460, NCI-H23, SK-MEL-5, DU-145, FIG. 3A
Protocol: To identify sensitivity patterns of the genotype-specific compounds, a subset of the compounds was selected using a GI50 profile pattern on a CLEA map.
First of all, a −logGI50 value of 8 (that is, GI50=0.01 μM) was chosen as a bipartite cutoff used to determine to which cell lines a compound was sensitive on a NCI60 panel. In this case, the compound was sensitive when the value is greater than 8, and was not sensitive when the value is less than 8.
Next, an enrichment score (an AUC value) was used to select the genotype-specific compounds in a CLEA assay.
An AUC value >80 and a P value <0.01 were used as cutoff values used to determine that a compound had significant sensitivity to certain genotypes. In this example, compounds showing strong potency (that is, a −logGI50 value of 8) to at least one cell line on the NCI60 panel were included.
As a result, a total of three non-overlapping compounds satisfying the above filtering requirements were compiled. Hierarchical clustering of these selected compounds was carried out on a category of STK11 genotypes. In this example, three main groups of compounds showing uniform sensitivity based on the mutant genotypes were identified. Such a cluster of compounds were sensitive to genetic mutations in an STK11 gene.

[2] = tested on: STK11-mutant lung cancer cell lines (A549, H460, H1993, H1395) and STK11-wild-type lung cancer cell lines (H226, H322M, H82, H524); assay: Cell viability (CellTiter-Blue) in STK11-mutant and STK11-wild-type lung cancer cell lines; assay type: cell-based; conditions: varying concentration, 72 hours; FIG. 5A
Protocol: NCI-60 lung cancer cell lines (NCI-H460, A549, NCI-H322M, and NCI-H226) were obtained from the U.S. National Cancer Institute (NCI DTP). All cells were grown in an RPMI medium (GIBCO) supplemented with 10% FBS (GIBCO) and penicillin/[…] (GIBCO), and kept at 37° C. in a humidified atmosphere of 5% CO2.
A total of three cardiac glycosides (chemicals) having the structures shown in FIG. 1 were screened in a lung cancer cell line. Digoxin, ouabain, and digitoxin were all purchased from Sigma Aldrich.
(§1) The cells were seeded in 96-well plates at a density of 2,000, 1,000, and 200 cells per well, and cultured for 3, 7, and 14 days, respectively. After 24 hours of seeding, the cells were treated with a chemical diluted with digitoxin and ouabain at working concentrations of 0.05 μM and 0.02 μM, respectively. The cells were again cultured for 72 hours (3 days), 7 days, and 14 days, and then the cell viability was measured using a CellTiter-Blue assay kit.

[3] = tested on: STK11-mutant cell line (A549) and cell line (A549-STK11) in which STK11 was restored into the wild type; assay: Cell viability (CellTiter-Blue) in A549 versus the STK11-restored A549-STK11 line; assay type: cell-based; conditions: for inhibition of cell growth in lung cancer cell lines A549 and A549-STK11: 96-well plate; for response of the STK11-restored cell line compared to the STK11-mutant cell line (inhibition of cell growth, TiterBlue): FIG. 5B
Protocol: as §1
In this case, each of a STK11-mutant cell line (A549) and a cell line (A549-STK11) in which STK11 was restored into the wild type were used as the lung cancer cell line.

[4] = tested on: A549 lung cancer cell line; assay: Mouse tumor xenograft model, A549; assay type: in vivo, athymic nude mice
Protocol: (§2) After athymic nude mice (Oriental Bio Inc) were purchased, the animal model was prepared according to the standard guidelines provided by the Catholic University of Korea-Institutional Animal Care and Use Committee (CUK-IACUC). A549 or A549-LKB 1 wt were subcutaneously injected (3×10^6 cells/ml) into the above animal model, and divided into three groups: (1) an untreated control group (n=10); (2) a group in which the mice were treated with digoxin at 60 ng/kg/body weight (n=10); (3) a group in which the mice were treated with digoxin at 180 ng/kg/body weight (n=10). Digoxin or a vehicle (1.9% DMSO/10% polyethylene glycol 400/l×PBS: a total volume of 200 μl) was orally administered three times a week for 5 weeks. Then, the diameter of each tumor base was measured, and the size of a tumor was then calculated according to the following equation: Tumor size (mm^3)=(length×width×height×0.52). Also, the mice were monitored until the tumor size reached 1 cm^3, and then the mice were sacrificed, and tumors were extracted from the mice.

[5] = tested on: cell line (A549-LKB1wt) in which STK11 was restored into the wild type; assay: Mouse tumor xenograft model, A549-LKB1wt (STK11 restored); assay type: in vivo, athymic nude mice; conditions: oral, three times a week for 5 weeks, 60 or 180 ng/kg/body weight; FIG. 10B
Protocol: as §2

| Compound | sensitivity (GI50 profile) in 6 cell lines with STK11 mutation potential [1] | inhibition of cell growth, STK11-mutant compared to STK11-wild-type lung cancer cell lines [2] | inhibition of cell growth in lung cancer cell lines A549 and A549-STK11 [3] | response of the STK11-restored cell line compared to the STK11-mutant cell line (inhibition of cell growth, TiterBlue) [3] | tumor growth in the STK11-mutant model compared to the wild-type STK11-expressing model ([4]; FIGS. 10C, 10D, 10E) | growth of a tumor ([4]; oral, three times a week for 5 weeks, 60 or 180 ng/kg/body weight, FIG. 10A) | growth of a tumor [5] |
| --- | --- | --- | --- | --- | --- | --- | --- |
| C[C@H]1O[C@@H](O[C@H]2[C@@H](O)C[C@H](O[C@H]3[C@@H](O)C[C@H](O[C@H]4CC[C@@]5(C)[C@H](CC[C@@H]6[C@@H]5C[C@@H](O)[C@]5(C)[C@@H](C7=CC(=O)OC7)CC[C@]65O)C4)O[C@@H]3C)O[C@@H]2C)C[C@H](O)[C@@H]1O [digoxin] | relatively high sensitivity | specifically inhibited the cell growth | the cell growth was inhibited | resistant | selectively reduced | reduced in a time-dependent manner | did not have the same effect |
| C[C@@H]1O[C@@H](O[C@H]2C[C@@H](O)[C@]3(CO)[C@H]4[C@H](O)C[C@]5(C)[C@@H](C6=CC(=O)OC6)CC[C@]5(O)[C@@H]4CC[C@]3(O)C2)[C@H](O)[C@H](O)[C@H]1O [ouabain] | relatively high sensitivity | specifically inhibited the cell growth | the cell growth was inhibited | resistant | – | – | – |
| C[C@H]1O[C@@H](O[C@H]2[C@@H](O)C[C@H](O[C@H]3[C@@H](O)C[C@H](O[C@H]4CC[C@@]5(C)[C@H](CC[C@@H]6[C@@H]5CC[C@]5(C)[C@@H](C7=CC(=O)OC7)CC[C@]65O)C4)O[C@@H]3C)O[C@@H]2C)C[C@H](O)[C@@H]1O [digitoxin] | relatively high sensitivity | specifically inhibited the cell growth | the cell growth was inhibited | resistant | – | – | – |
